System: High-Fat Diet (HFD) induced obesity model
Assay: Effectiveness on metabolic syndrome risk factors, high-fat diet-induced obesity model
Settings: reduction, negative = increase
[1] = ED4: HFD, 0.001 mg/Kg daily 2 weeks
[2] = ED5: Normal diet, 0.001 mg/Kg daily 2 weeks
[3] = ED6: HFD, 0.0175 mg/Kg daily 2 weeks
[4] = ED7: Normal diet, 0.0175 mg/Kg daily 2 weeks
[5] = ED8: HFD, 0.175 mg/Kg daily 2 weeks
[6] = ED9: Normal diet, 0.175 mg/Kg daily 2 weeks
[7] = ED10: HFD, 0.18 mg/Kg daily 2 weeks
[8] = ED11: Normal diet, 0.18 mg/Kg daily 2 weeks
[9] = ED12: HFD, 0.1999 mg/Kg daily 2 weeks
[10] = ED13: Normal diet, 0.1999 mg/Kg daily 2 weeks
[11] = EH4: HFD, 0.20 mg/Kg daily 2 weeks, purity min 95%
[12] = EH5: Normal diet, 0.20 mg/Kg daily 2 weeks, purity min 95%

Excerpt: Animal studies in high-fat diet-induced obesity model in a total 75 male C57BL/6/CIEABR mice 6 to 7 weeks of age.
The test system is based on the High-Fat Diet (HFD) induced obesity model.
During the quarantine period (10 days), all animals were given rodent food “PicoLab Mouse Diet 5058” food, later, they were given high fat food “Tso's High Fat Diet With Butter Fat” or “PicoLab Mouse Diet 5058” food, according to the assignment of the type of diet and treatment that each animal should consume (See table 3 and table 4).
At the end of the induction period, the administration of the different treatments began. The test product, vehicle, and controls were administered daily for two weeks. Administration was orally using curved stainless steel gastric tubes (18 G×1.5) previously sanitized; administration was performed at 11:00±1 h.
For each treatment, different parameters were quantified to determine their decrease regarding the treatment applied to each group: weight loss (%), feed consumption (%), fat free mass (g), fat mass (g), body mass index, glucose (%), cholesterol (%) and triglycerides (%).

## CC(C)(C)c1cc(C=C(C#N)C#N)cc(C(C)(C)C)c1O [tyrphostin AG17, Tyrphostin AG17]
[1]
  Body mass index: 1.04
  Cholesterol (%): −0.03%
  Fat free mass: -2.69 g
  Fat mass: -0.54 g
  Food consumption (%): −4.21%
  Glucose (%): 0.75%
  Triglycerides (%): 4.35%
  Weight loss (%): 3.17%
[2]
  Body mass index: 1.69
  Cholesterol (%): 0.10%
  Fat free mass: -4.02 g
  Fat mass: 1.28 g
  Food consumption (%): 1.05%
  Glucose (%): 1.33%
  Triglycerides (%): 7.83%
  Weight loss (%): 4.01%
[3]
  Body mass index: 2.03
  Cholesterol (%): 0.04%
  Fat free mass: 1.22 g
  Fat mass: -0.31 g
  Food consumption (%): 13.04%
  Glucose (%): 0.92%
  Triglycerides (%): 17.39%
  Weight loss (%): 6.19%
[4]
  Body mass index: 2.73
  Cholesterol (%): 0.44%
  Fat free mass: 3.21 g
  Fat mass: 2.59 g
  Food consumption (%): 17.39%
  Glucose (%): 1.24%
  Triglycerides (%): 20.00%
  Weight loss (%): 8.40%
[5]
  Body mass index: 4.41
  Cholesterol (%): 0.65%
  Fat free mass: 2.34 g
  Fat mass: 1.28 g
  Food consumption (%): 25.00%
  Glucose (%): 1.36%
  Triglycerides (%): 24.35%
  Weight loss (%): 17.16%
[6]
  Body mass index: 4.30
  Cholesterol (%): 1.30%
  Fat free mass: 3.98 g
  Fat mass: 3.56 g
  Food consumption (%): 20.83%
  Glucose (%): 1.93%
  Triglycerides (%): 25.22%
  Weight loss (%): 22.13%
[7]
  Body mass index: 3.30
  Cholesterol (%): 1.10%
  Fat free mass: 3.32 g
  Fat mass: -0.10 g
  Food consumption (%): 21.74%
  Glucose (%): 1.49%
  Triglycerides (%): 32.17%
  Weight loss (%): 16.56%
[8]
  Body mass index: 4.22
  Cholesterol (%): 1.27%
  Fat free mass: 5.11 g
  Fat mass: 4.92 g
  Food consumption (%): 22.92%
  Glucose (%): 2.31%
  Triglycerides (%): 29.57%
  Weight loss (%): 20.88%
[9]
  Body mass index: 3.35
  Cholesterol (%): 0.94%
  Fat free mass: 3.41 g
  Fat mass: 0.36 g
  Food consumption (%): 22.27%
  Glucose (%): 1.40%
  Triglycerides (%): 30.54%
  Weight loss (%): 16.24%
[10]
  Body mass index: 3.91
  Cholesterol (%): 2.44%
  Fat free mass: 5.39 g
  Fat mass: 6.02 g
  Food consumption (%): 23.11%
  Glucose (%): 2.11%
  Triglycerides (%): 30.43%
  Weight loss (%): 18.21%
[11]
  Body mass index: 3.34
  Cholesterol (%): 1.13%
  Fat free mass: 3.44 g
  Fat mass: 0.39 g
  Food consumption (%): 18.18%
  Glucose (%): 1.43%
  Triglycerides (%): 31.02%
  Weight loss (%): 20.88%
[12]
  Body mass index: 4.05
  Cholesterol (%): 2.48%
  Fat free mass: 4.92 g
  Fat mass: 5.99 g

Source: US20240374552A1, “Compositions and Methods for Preventing or Reducing the Risk of Metabolic Syndrome” (priority 2021, published 2024)
